Legend:
COS cells = assay: Inhibition of plasmid replication in cotransfected COS cells expressing HSV1-TK; type: cell-based, monkey; details: 10 μM drug; for reduction of total plasmid copy number (pSV2CAT) relative to no drug treatment: COS cells cotransfected with pSV2CAT, pApS1 (MTV-HSV1-TK), pRShGR, Dex 10^-7 M, 36 h; for decrease of replication of PRShGR': same cotransfection, similar to pSV2CAT
Protocol: The possibility was tested that HSVI-TK expressed from a transfected plasmid could metabolize anti-herpetic nucleosides to substrates capable of being metabolized by a cellular DNA polymerase. In principle, the incorporation of these activated drugs should lead to a net decrease in cellular DNA replication. Accordingly, a plasmid capable of replicating in COS cells [monkey kidney cells which express T antigen (Tag); See Gluzman, Y. in Cell, 23:175-182 (1981)], namely pSV2CAT (See FIG. 1a; a plasmid that contains the Simian virus 40 promoter region linked to the chloramphenicol acetyltransferase (CAT) gene; See Gorman, et al. in Mol. Cell. Biol., 2:1044-1051(1982)) was cotransfected with a plasmid, pApSI (a plasmid that contains the mouse mammary tumor virus long terminal repeat (MTV-LTR) linked to the HSV1-TK gene; See Chandler, et al., in Cell, 33:489-499 (1983)), expressing HSV1-TK gene under the control of the glucocorticoid inducible promoter of the mouse mammary tumor virus (MTV) (see FIG. 1a). Here, the expression of TK is dependent on both the presence of glucocorticoids, such as the synthetic dexamethasone (Dex), and the glucocorticoid receptor which activate the MTV-promoter in the presence of Dex. For this reason, a human glucocorticoid receptor (hGR) expression vector, PRShGR' (a human glucocorticoid receptor (hGR) expression vector that contains the Rous sarcoma virus long terminal repeat (RSV-LTR) linked to the human glucocorticoid receptor; See Giguere, et al., in Cell, 46:645-652 (1986)), was also cotransfected to insure high levels of this transacting factor. PRShGR' itself contains the origin of replication of SV40 and therefore is able to replicate in COS cells.
Semi-confluent COS cells were cotransfected by the calcium phosphate technique (See Graham, F. L. and van der Eb, A. J., Virology, 52:456-467 (1973) with 1 μg of pSV2CAT, 5 μg of pApS1 and 1 μg of pRShGR' and analyzed 36 hours later. The effect of ACV or FIAU on the replication of pSV2CAT was monitored by the reduction in the number of molecules of this plasmid as compared to a similar experiment conducted in the absence of these drugs. The cells were grown in Dulbecco media containing 5% FCS. Before each experiment, Dex, at a concentration of 10^−7 M, was added. Where the nucleoside analogs were tested, either ACV or FIAU was added to the media at a concentration of 10 μM. When the cells were trypsinized and washed after 24 hours, and then replaced, the new media contained the same concentration of Dex and ACV or FIAU as before. 12 hours later the cells were harvested and plasmid DNA was recovered. The plasmids were recovered from the transfected cells by the method of Hirt (see J. Mol. Biol., 26:365-269 (1967)). […]

[1] = tested on: rat fibroblast cell line #3B; assay: Cell growth assay, HSV1-TK expressing 3B cells; type: cell-based
From the text: To examine the effect on cellular DNA replication, the rat fibroblast cell line #3B (see Pfahl, et al. Proc. UCLA Symp. Conf. Steroid Hormone Action, ed. Ringold, G. (Liss, N.Y.), Vol. 75:161-168 (1987) that stably expresses the glucocorticoid inducible MTV-HSV1-TK gene, was used. Addition of Dex to these cells leads to a 50-fold increase in HSV1-TK activity. The effect of the drugs on the 3B cells was compared to the one obtained on the control rat 208 fibroblast cell line (see Quade, K. (1979) in Virology, 98:461-465 (1979), a cell line not expressing HSV1-TK). The experiments were performed by seeding cells at low density (3×10^4) in Dulbecco media containing 10% FCS. Cells were incubated with varying concentrations of drug placed in the media 12 hours after the cells were plated either in the presence or in the absence of 10^−7 M Dexamethasone. After a total period of 72 hours, viable cells were recognized by Trypan blue exclusion. Cell numbers were determined with a Neubauer Hemocytometer. The efficacy of the drugs was monitored as reduction in the total number of viable cells.

spleen and thymus = assay: FIAU cell killing in KHTK transgenic mice (miniosmotic pump); type: in vivo, mouse
Protocol: Furthermore, to test if the protein was biologically active, a TK assay [See Fyfe et al., J. Biol. Chem. 253:8721-8727 (1978)] was performed on extracts from these tissues. […] To evaluate the efficacy of the system in vivo, an experiment was performed in which transgenic and non-transgenic littermates were implanted subcutaneously with a miniosmotic pump (model 2002, Alzet, Alza Corp., Palo Alto, Calif.). Transgenic and nontransgenic littermates were then treated for one week with a 50 mg/ml solution of FIAU in PBS released by the Miniosmotic pump. FIAU was chosen because it was most efficient in blocking the DNA replication in vitro. The dose was calculated to obtain serum levels of the drug shown to be effective in cell culture. The animals were sacrificed one week after the pump was implanted. […] In the transgenic mouse, most organs were also normal with the dramatic exception of the spleen and thymus which were visually atrophied.

[2] = transgenic mouse, 50 mg/ml FIAU in PBS by miniosmotic pump, one week

| SMILES | reduction of total plasmid copy number (pSV2CAT) relative to no drug treatment (COS cells) [%] | decrease of replication of PRShGR' (COS cells) [%] | cell death ([1]; 3.0 μM ACV, 3B cells in the presence of Dex, 72 h) [%] | cell death ([1]; 10 μM ACV, 3B cells in the presence of Dex) [%] | toxicity independent of the presence or absence of Dex ([1]; 100 μM ACV) | cell death ([1]; 100 μM ACV, 3B cells in the presence of Dex) [%] | effect on number of viable cells ([1]; 0.1 to 1.0 μM, 72 h) | autopsy findings in control mouse (spleen and thymus; nontransgenic littermate, one week of FIAU treatment) | reduction of the cell number in the spleen (spleen and thymus; [2]) [%] | reduction of the cell number in the thymus (spleen and thymus; [2]) [%] | reduction of viability ([1]; 0.1 μM FIAU) | cell death ([1]; 3.0 μM FIAU, in the absence of severe non-specific toxicity) [%] |
| --- | --- | --- | --- | --- | --- | --- | --- | --- | --- | --- | --- | --- |
| Nc1nc2c(ncn2COCCO)c(=O)[nH]1 [ACV, 9-[(2-hydroxyethoxy)methyl]guanine] | 40 | 40 | 20 | 60 | non-specific toxicity | 98 | no effect | – | – | – | – | – |
| O=c1[nH]c(=O)n([C@H]2O[C@H](CO)[C@@H](O)[C@@H]2F)cc1I [FIAU, 1-(2-deoxy-2-fluoro-a-D-arabinofuranosil)-5-iodouracil] | 70 | 70 | – | – | – | – | – | no apparent toxic effects | 57 | 83 | more than 60% | 98 |
